Results published in patent US20210008088A1, “COMPOSITION FOR PREVENTING OR TREATING NON-ALCOHOLIC LIVER DISEASE OR INSULIN RESISTANCE COMPRISING GINSENOSIDE F2” (INTELLIGENT SYNTHETIC BIOLOGY CENTER, priority 2015, published 2021).

Assays:
[1] = system: mouse model fed with high fat diet; test: Effect of alleviating fatty liver in mouse model fed with high fat diet; type: in vivo; conditions: 50 mg/kg orally five days a week for 12 weeks
Experimental: The effect of ginsenoside F2 on alleviating fatty liver was confirmed using a mouse model fed with high fat diet. Eight-week-old male mouse (body weight; 25 g to 28 g) were orally fed with high fat diet and ginsenoside F2 (50 mg/kg) five days a week for a period of 12 weeks. […] From the results, it was confirmed that ginsenoside F2 has the effect of inhibiting fatty liver production in mice even when they were fed with high fat diet.

[2] = system: adipogenesis in the liver (SREBP1c, FAS, CB1R, NAPE-PLD); test: Analysis of liver tissues of high fat diet-fed mice (H&E, Oil-red O staining, triglyceride, protein and gene expression); type: in vivo, mouse
Experimental: Hematoxylin and Eosin (H&E) staining was performed for the observation of the changes in the liver tissues, and the triglycerides in hepatocytes were stained via Oil-red O staining, and the results are shown under ×100 magnification (FIG. 2A). As a result, it was confirmed again that the lipid accumulation in hepatocytes was reduced.

[3] = system: mouse fed with high fat diet; test: Improvement in insulin sensitivity: blood glucose after glucose and insulin administration; type: in vivo; conditions: vs control group (FIG. 3)
Experimental: An eleven-week-old mouse was administered with glucose and insulin and the blood glucose level was monitored in a time-dependent manner.

[4] = system: inflammatory cytokines (TNF-α, IL-1β, and IL-6); test: Expression of inflammatory cytokines in mouse fed with high fat diet; type: in vivo; conditions: mouse fed with high fat diet and ginsenoside F2 (FIG. 4)
hepatic stellate cells = test: Expression of endocannabinoid synthase in hepatic stellate cells treated with TNF-α; type: cell-based; conditions: hepatic stellate cells after TNF-α; 10 μM, 20 μM, and 30 μM; 24 hours (FIG. 5)
Experimental: After treating hepatic stellate cells with TNF-α, they were treated with ginsenoside F2 at concentrations of 10 μM, 20 μM, and 30 μM, and cultured for 24 hours. As a result of examining the difference in expression levels in the cultured hepatic stellate cells, it was confirmed that ginsenoside F2 inhibits the expression of DAGLα and DAGLβ, which are enzymes important for the synthesis of 2-AG, a kind of endocannabinoids, and that ginsenoside F2 inhibits the expression of NAPE-PLD and FAAH, which are factors associated with liver damage (FIG. 5).

[5] = system: breast cancer stem cells (CSCs); conditions: inducing apoptosis along with autophagy in breast cancer stem cells; Mai T T et al. 2012; cited from earlier work
glioblastoma = conditions: xenograft model in SD rats; Shin J Y et al. 2012; cited from earlier work
[6] = liver, high fat diet-fed mice (FIGS. 2C and 2D)

CC(C)=CCC[C@](C)(O[C@@H]1O[C@H](CO)[C@@H](O)[C@H](O)[C@H]1O)[C@H]1CC[C@]2(C)[C@@H]1[C@H](O)C[C@@H]1[C@@]3(C)CC[C@H](O[C@@H]4O[C@H](CO)[C@@H](O)[C@H](O)[C@H]4O)C(C)(C)[C@@H]3CC[C@]12C [ginsenoside F2]
size of liver ([1]; vs control group (FIG. 1A)): significant decrease | weight of liver ([1]; vs control group (FIG. 1B)): significant decrease | lipid accumulation in hepatocytes ([2]; H&E and Oil-red O staining, ×100 magnification (FIG. 2A)): reduced | triglyceride level in the liver ([2]; high fat diet-fed mice (FIG. 2B)): lowered | expression of CB1R gene [2, 6]: reduced | expression of FAS gene [2, 6]: reduced | expression of NAPE-PLD gene [2, 6]: reduced | expression of SREBP1c gene [2, 6]: reduced | protein expression of FAS [2, 6]: reduced | protein expression of SREBP1c [2, 6]: reduced | blood glucose level with time [3]: decrease | expression of IL-1β [4]: inhibit | expression of IL-6 [4]: inhibit | expression of TNF-α [4]: inhibit | expression of DAGLα (hepatic stellate cells): inhibits | expression of DAGLβ (hepatic stellate cells): inhibits | expression of FAAH (hepatic stellate cells): inhibits | expression of NAPE-PLD (hepatic stellate cells): inhibits | anticancer effect in breast cancer [5]: anticancer effect | anticancer effect against glioblastoma (glioblastoma): anticancer effect
